Source: article PMC10227015, “From a drug repositioning to a structure-based drug design approach to tackle acute lymphoblastic leukemia” (Nature Communications, 2023)
Like-named read-outs stand apart in the source and are kept apart here.

What was measured:
[1] = target: T1, dCK-C3S-S74E (Homo sapiens, UniProt P27707, form not given/S74E); experiment: Thermal shift assay (TSA)
[2] = target: T1, dCK-C3S-S74E; experiment: Enzymatic assay (PK/LDH coupled), dC phosphorylation by dCK in the presence of ATP; assay type: biochemical
Protocol: (§1) For enzymatic assays, cells were re-suspended in 20 mM TRIS, pH 8 500 mM NaCl, 0.1% BRIJ-35 and 5% glycerol buffer and one EDTA free anti-protease tablet was added (Roche). After sonication and centrifugation (30,000 × g), the supernatant was loaded on a 5 ml HisTrap FF column (GE healthcare) pre-equilibrated with 20 mM TRIS, pH 8, 500 mM NaCl, 0.01% BRIJ-35 and 5% glycerol buffer. The protein was then eluted by the same buffer containing 250 mM imidazole after a wash containing 25 mM imidazole. The eluted fraction was applied on a HiPrep 26/10 desalting column (GE healthcare) pre-equilibrated with 20 mM TRIS, pH 8, 500 mM NaCl, 5% glycerol and 0.01% BRIJ-35 buffer. Finally, protein in a 20% glycerol buffer was flash frozen in liquid nitrogen and stored at −80 °C.
(§2) Kinetic analyses were performed using a spectrophotometric continuous enzymatic-coupled assay using pyruvate kinase (PK) and lactate dehydrogenase (LDH). Analysis of the effect of compounds on dCK-C3S-S74E activity was performed using dC as substrate and UTP/ATP as phosphate donors. UTP is the physiological dCK-phosphate donor[46] and it was used to determine activation versus inhibition behavior. ATP was used to calculate IC50 values, as it allows the analysis of a dose response curve. The PK/LDH coupled assay is based on the conversion of phosphoenolpyruvate (PEP) and UDP/ADP to pyruvate and UTP/ATP by PK and the subsequent conversion of pyruvate to lactate by LDH. The latter step requires NADH, which is oxidized to NAD^+. NADH is fluorescent (excitation at 337 nm and emission at 460 nm), but not NAD^+. Thus, the measurement of fluorescent decrease at 460 nm is a measure of kinase activity. dCK experiments were performed in a buffer containing 50 mM HEPES, pH 7.5, 5 mM MgCl2, 1 mM DTT, and 100 mM KCl. Buffer was supplemented with PK (0.01 U/µl), LDH (0.02 U/µl), PEP (1 mM), NADH (300 µM) and compounds at varying concentrations. For UTP assays, protein concentration was 2 μM, substrate 200 µM (dC), and UTP 1 mM. For ATP assays, protein concentration was 100 nM (and 50 nM when indicated), substrate 100 µM (dC), and ATP 1 mM. All measurements were performed on a microplate reader Pherastar FS (BMG Labtech). All assays were performed in triplicate and each experiment was performed at least twice. The data are presented as mean ± SD. The results were plotted as kinetics and the velocity was determined for each condition as the slope of the linear range of the curve. For each compound concentration, the velocity of the reaction (according to V = d[P]/dt) was normalized with respect to the drug free control and velocity ratios were compared. IC50 values corresponding to enzymatic inhibition in ATP were calculated by nonlinear regression curves using GraphPad Prism software 9.4.0.

[3] = test system: CCRF-CEM cell line; experiment: dCK cellular assay: CCRF-CEM proliferation in the presence of dT and dC; assay type: cell-based, human; conditions: for IC50: Homo sapiens
Protocol: (§3) The dCK cellular assay was set up to assess the ability to inhibit dCK activity in a cellular model. The model was developed with a T-cell acute lymphoblastic leukemia cell line (CCRF-CEM), because of its high dependence on the SP, thus on dCK activity. Cellular assays were performed to assess the inhibition of cell proliferation under two conditions: (i) in the presence of the compound alone to determine the nonspecific effect on cells, independent of dCK (nonspecific toxicity) and (ii) in the presence of an inhibitor of the DNP to determine the ability of compounds to inhibit dCK and decrease tumor proliferation (activity on dCK). The inhibitor of the DNP chosen for the experiments was thymidine (dT), a physiological inhibitor of ribonucleotide reductase which arrests cell proliferation in phase S. The dTTP produced via thymidine kinase from dT acts as a RNR inhibitor by an allosteric regulation of the R1 subunit. The addition of the nucleoside deoxycytidine (dC) in the medium allows the rescue of cell proliferation by passing only through the salvage pathway, mediated by dCK. dC needs to be added exogenously to mimic physiological concentrations because it is not present in the cell culture medium, on the contrary to mouse model, in which it is naturally present in the serum. Therefore, cell proliferation under these conditions (+dT +dC) is dCK dependent and it is possible to determine the IC50 of dCK inhibitors on the inhibition of cell proliferation. Results are expressed as % cell proliferation relative to the control with DMSO.
(§4) The amount of reduced dye formed by metabolically active cells was quantified by its fluorescence measured at 560 nm (excitation) and 590 nm (emission) in a microplate reader (CLARIOstar, BMG Labtech). A blank well without cells was used as a background control. Each experiment was performed at least three times (with technical triplicates) and data are presented as the mean ± SD.

[4] = test system: CCRF-CEM cell line; experiment: CCRF-CEM proliferation, compound alone (nonspecific toxicity); assay type: cell-based, human; conditions: compound 10 µM alone, 72 h
Protocol: as §3, §4

[5] = target: T1, dCK-C3S-S74E; experiment: Enzymatic assay (PK/LDH coupled), dC phosphorylation by dCK in the presence of UTP; assay type: biochemical; conditions: presence of UTP
Protocol: as §1
as §2, with “Analysis of the effect of compounds on dCK-C3S-S74E activity was performed using dC as substrate and UTP/ATP as phosphate donors.” left out

[6] = test system: dCK-C3S-S74E; experiment: Thermal shift assay (TSA); conditions: for ΔTm (º) (TSA): Figure 2a, mean; for THERMAL SHIFT ASSAY +Tm (°): mean ± SD
[7] = target: dCK-C3S-S74E; experiment: Enzymatic assay (PK/LDH coupled), dC phosphorylation by dCK in the presence of ATP; assay type: biochemical, human; conditions: presence of ATP, read-out: ENZYMATIC ASSAY IC50
Protocol: as §1, §2

[8] = test system: dCK-C3S-S74E; experiment: Enzymatic assay (PK/LDH coupled), dC phosphorylation by dCK in the presence of UTP; assay type: biochemical, human; conditions: presence of UTP
Protocol: as §1
as §2, with “Analysis of the effect of compounds on dCK-C3S-S74E activity was performed using dC as substrate and UTP/ATP as phosphate donors.” left out

[9] = read-out: dCK CELLULAR ASSAY IC50 (nM), CCRF-CEM, 200 µM dT and 1 µM dC, read-out: dCK […] ASSAY IC50
[10] = Figure 2a, CCRF-CEM cell line, mean, read-out: IC50 (nM) (Cell Prolif)

T1 sequence (P27707 whole entry S74E, form open): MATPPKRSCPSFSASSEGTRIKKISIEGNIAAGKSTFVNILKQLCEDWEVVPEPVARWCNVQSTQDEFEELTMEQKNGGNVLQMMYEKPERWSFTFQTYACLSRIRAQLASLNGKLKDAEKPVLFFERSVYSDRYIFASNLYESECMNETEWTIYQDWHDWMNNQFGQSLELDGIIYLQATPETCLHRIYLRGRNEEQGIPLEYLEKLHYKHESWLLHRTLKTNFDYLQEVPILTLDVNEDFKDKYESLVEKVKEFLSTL
T1 sequence (P27707 whole entry S74E, form open): as above

Row | IC50 [3, 9] [nM] | THERMAL SHIFT ASSAY +Tm (°) [6] [°] | ENZYMATIC ASSAY (Activation/Inhibition) [8] | IC50 ([7]; [dCK] = 100 nM) [µM] | SMILES | further results
1 | 3460 ± 638 | 15.2 ± 0.0 | A/I | 1.94 ± 0.529 | Cc1ccc(OCc2ccc(CN3CCN(C)CC3)cc2)cc1Nc1nc(-c2nccc(N)n2)cs1 [OR0232] | 
2 | 2180 ± 388 | 16.9 ± 0.4 | A/I | 2.04 ± 0.684 | Cc1ccc(C#Cc2ccc(CN3CCN(C)CC3)cc2)cc1Nc1nc(-c2nccc(N)n2)cs1 [OR0153] | 
3 |  | 21.0 ± 0.5 | I |  | Cc1ccc(-c2ccc(OCCN3CCN(C)CC3)nc2)cc1N(CC(C)C)c1nc(-c2nc(N)cc(N)n2)cs1 [OR0608] | ΔTm (º) (TSA) [6]: 21.03 º; IC50 ([7]; [dCK] = 50 nM (footnote A)): 0.106 ± 0.023 µM; IC50 [3, 10]: 40 nM
4 | 14600 ± 1190 | 14.8 ± 0.4 | A/I | 3.46 ± 0.349 | Cc1ccc(NC(=O)c2ccc(CCN3CCN(C)CC3)cc2)cc1Nc1nc(-c2nccc(N)n2)cs1 [OR0146] | 
5 | > 40000 | 12.6 ± 0.1 | A/I | 6.38 ± 2.08 | Cc1ccc(NC(=O)c2ccc(CN3CC4(CN(C)C4)C3)cc2)cc1Nc1nc(-c2nccc(N)n2)cs1 [OR0156] | 
6 |  | 14.7 ± 0.5 | A/I |  | Cc1ccc(-c2ccc(CCN3CCN(C)CC3)cc2)cc1N(CCCN)c1nc(-c2nc(N)cc(N)n2)cs1 [OR0611] | ΔTm (º) (TSA) [6]: 14.67 º; IC50 ([7]; [dCK] = 50 nM (footnote A)): 0.498 ± 0.119 µM; IC50 [3, 10]: 11800 nM

Continued, compound first:

Row | SMILES | IC50 [3, 9] [nM] | THERMAL SHIFT ASSAY +Tm (°) [6] [°] | ENZYMATIC ASSAY (Activation/Inhibition) [8] | IC50 ([7]; [dCK] = 100 nM) [µM] | further results
7 | CCCN(c1nc(-c2cccnc2)cs1)c1cc(-c2ccc(S(=O)(=O)N3CCN(C)CC3)cc2)ccc1C [OR0659] |  |  |  |  | ΔTm, dCK thermal stabilization (TSA) ([1]; 5 μM protein, 50 μM compound): 6.3 °C; IC50 ([2]; ATP, read-out: enzymatic inhibition IC50): > 100 µM; inhibition of cell proliferation in combination with dT ([3]; CCRF-CEM, presence of dT + dC): unable to inhibit cellular proliferation
8 | Cc1ccc(NC(=O)c2ccc(CN3CCN(C)CC3)cc2)cc1Nc1nc(-c2cccnc2)cs1 [Masitinib, masitinib, reference compound] |  |  |  |  | Cell proliferation of the CCRF-CEM cell line Mean (% prolif) [4]: 87.5%
9 | CCCN(c1nc(-c2nccc(N)n2)cs1)c1cc(-c2ccc(OCC(=O)N3CCN(C)CC3)cc2)ccc1C [OR0597] | 220 ± 127 |  |  |  | IC50 ([2]; read-out: ENZYMATIC ASSAY IC50, presence of ATP, [dCK] = 100 nM): 0.349 ± 0.089 µM; ENZYMATIC ASSAY (Activation/Inhibition) [5]: I
10 | CCCN(c1nc(-c2nc(N)cc(N)n2)cs1)c1cc(-c2ccc(S(=O)(=O)N3CCOCC3)cc2)ccc1C [OR0617] |  | 18.3 ± 1.1 | I |  | ΔTm (º) (TSA) [6]: 18.29 º; IC50 ([7]; [dCK] = 50 nM (footnote A)): 0.181 ± 0.015 µM; IC50 [3, 10]: 78 nM
11 | CCCN(c1nc(-c2nc(N)cc(N)n2)cs1)c1cc(-c2ccc(S(=O)(=O)N3CCN(CC(=O)[O-])CC3)cc2)ccc1C.[Na+] [OR0649] |  |  |  |  | ΔTm (º) (TSA) ([1]; Figure 2a, mean): 17.61 º; IC50 ([3]; CCRF-CEM, read-out: IC50 (nM) (Cell Prolif)): 13400 nM
